Assays:
[1] = target: T1, CYR61 C134 (O00622) (Homo sapiens, UniProt O00622); assay: Competitive isoTOP-ABPP, cell lysates; assay type: binding; conditions: for isoTOP-ABPP ratio (reactivity profile), O00622_C134: 500 μm in-vitro ramos_231
T1 sequence (O00622 25-381): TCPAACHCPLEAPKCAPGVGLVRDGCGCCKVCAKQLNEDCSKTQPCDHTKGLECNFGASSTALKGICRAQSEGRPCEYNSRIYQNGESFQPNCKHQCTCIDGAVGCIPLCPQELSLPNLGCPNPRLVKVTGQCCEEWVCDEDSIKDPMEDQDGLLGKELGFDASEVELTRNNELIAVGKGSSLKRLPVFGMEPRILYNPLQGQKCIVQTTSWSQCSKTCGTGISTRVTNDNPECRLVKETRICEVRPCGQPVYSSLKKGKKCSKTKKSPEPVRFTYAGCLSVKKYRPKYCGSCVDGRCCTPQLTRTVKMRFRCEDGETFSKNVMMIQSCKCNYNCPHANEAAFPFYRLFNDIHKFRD

[2] = target: T2, KDM3A C251 (Q9Y4C1) (Homo sapiens, UniProt Q9Y4C1); assay: Competitive isoTOP-ABPP, cell lysates; assay type: binding; conditions: for R value (DMSO/fragment): 500 μM
T2 sequence (Q9Y4C1 1-1321): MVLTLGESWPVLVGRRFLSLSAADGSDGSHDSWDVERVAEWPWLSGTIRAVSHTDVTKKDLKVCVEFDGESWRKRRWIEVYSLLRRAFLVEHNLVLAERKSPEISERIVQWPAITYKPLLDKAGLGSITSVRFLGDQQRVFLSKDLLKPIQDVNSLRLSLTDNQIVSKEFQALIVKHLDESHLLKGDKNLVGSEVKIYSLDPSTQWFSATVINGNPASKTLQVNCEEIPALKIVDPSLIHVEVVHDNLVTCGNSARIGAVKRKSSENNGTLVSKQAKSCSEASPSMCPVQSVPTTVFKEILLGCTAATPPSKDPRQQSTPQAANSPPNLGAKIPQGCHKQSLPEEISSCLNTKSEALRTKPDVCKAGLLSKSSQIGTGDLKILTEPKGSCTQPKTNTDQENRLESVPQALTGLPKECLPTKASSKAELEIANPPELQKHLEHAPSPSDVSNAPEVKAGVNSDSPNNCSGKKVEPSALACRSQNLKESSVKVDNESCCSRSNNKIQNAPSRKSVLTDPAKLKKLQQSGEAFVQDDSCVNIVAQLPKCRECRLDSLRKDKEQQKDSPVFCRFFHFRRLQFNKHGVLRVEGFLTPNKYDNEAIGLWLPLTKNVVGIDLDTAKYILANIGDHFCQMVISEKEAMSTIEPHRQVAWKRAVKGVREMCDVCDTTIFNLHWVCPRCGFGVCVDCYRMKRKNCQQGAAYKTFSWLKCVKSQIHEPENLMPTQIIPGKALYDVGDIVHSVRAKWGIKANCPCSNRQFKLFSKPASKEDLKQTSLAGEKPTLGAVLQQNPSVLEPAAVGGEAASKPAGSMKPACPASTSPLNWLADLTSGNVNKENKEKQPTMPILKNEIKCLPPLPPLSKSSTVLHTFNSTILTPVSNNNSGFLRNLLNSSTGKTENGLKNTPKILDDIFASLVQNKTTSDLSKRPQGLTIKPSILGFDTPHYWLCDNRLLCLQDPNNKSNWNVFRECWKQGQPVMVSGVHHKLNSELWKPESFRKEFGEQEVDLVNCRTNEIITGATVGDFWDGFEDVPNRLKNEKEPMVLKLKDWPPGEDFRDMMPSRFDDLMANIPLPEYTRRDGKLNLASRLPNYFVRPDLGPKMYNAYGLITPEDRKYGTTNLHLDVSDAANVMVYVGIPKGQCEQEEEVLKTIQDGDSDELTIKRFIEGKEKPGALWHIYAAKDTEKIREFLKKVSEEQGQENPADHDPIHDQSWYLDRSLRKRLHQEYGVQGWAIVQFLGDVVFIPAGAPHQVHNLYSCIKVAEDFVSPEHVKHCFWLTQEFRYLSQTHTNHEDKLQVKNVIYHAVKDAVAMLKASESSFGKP

CC(C)CCOCCNC(=O)CCl [compound 27]
isoTOP-ABPP ratio (reactivity profile), O00622_C134 [1]: 1.5

O=C(CCl)N1CCN(S(=O)(=O)c2ccccc2F)CC1 [compound 10]
isoTOP-ABPP ratio, O00622_C134 ([1]; 500 μM, invitro, 231): 20.0

C=CC(=O)N(c1ccccc1)C1CCCCC1 [compound 46]
isoTOP-ABPP reactivity profile ratio, Q9Y4C1_C251 ([2]; 500 μm, in-vitro_ramos_231): 1.0

O=C(CCl)Nc1cc(C(F)(F)F)cc(C(F)(F)F)c1 [compound 3]
R value (DMSO/fragment) ([1]; 500 μM, in vitro, MDA-MB-231): 20.0 | R value (DMSO/fragment) ([2]; in vitro, MDA-MB-231): 4.4 | R value (DMSO/fragment) ([2]; invitro, ramos): 4.0

CC(Cl)C(=O)Nc1cc(C(F)(F)F)cc(C(F)(F)F)c1 (stereo not shown) [compound 25]
isoTOP-ABPP ratio (reactivity profile), O00622_C134 [1]: 1.0

CC(Br)C(=O)Nc1cc(C(F)(F)F)cc(C(F)(F)F)c1 (stereo not shown) [compound 24]
isoTOP-ABPP ratio (reactivity profile), Q9Y4C1_C251 ([2]; 500 μm in-vitro ramos): 1.3

O=C(CCl)NC12CC3CC(CC(C3)C1)C2 [compound 21]
isoTOP-ABPP ratio (reactivity profile), Q9Y4C1_C251 ([2]; 500 μm in-vitro ramos_231): 0.7

O=C(CCl)N1CCC(C(O)(c2ccccc2)c2ccccc2)CC1 [compound 20]
isoTOP-ABPP ratio (reactivity profile), O00622_C134 [1]: 20.0
